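Each compound was tested at five concentrations against cells in 96-well plates for 48 hours. TGI: concentration producing complete growth inhibition.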 Bounds are passed on as bounds.

Some test systems named below: HL-60(TB) leukemia; NCI-H226 lung; M14 melanoma; HCC-2998 colon; OVCAR-5 ovarian; SF-268 CNS; OVCAR-3 ovarian; K-562 leukemia; SW-620 colon; NCI-H23 lung; CCRF-CEM leukemia; LOX IMVI melanoma; SK-MEL-2 melanoma; HOP-92 NSCLC; MDA-MB-435; NCI/ADR-RES ovarian.
What all share (experiment): DTP human tumour cell line panel, 48 h

Regarding `Nc1ccc2ncc(Nc3ccc(F)cc3)nc2c1`, the total growth inhibition concentration (TGI) in the test with HL-60(TB) leukemia, in the test with NCI-H226 lung, in the test on M14 melanoma, in the test with HCC-2998 colon, in the test with OVCAR-5 ovarian and in the test on SF-268 CNS was more than 100 µM each time. The TGI in the test on OVCAR-3 ovarian, with K-562 leukemia, in the test with SW-620 colon, with NCI-H23 lung, with CCRF-CEM leukemia and in the test with LOX IMVI melanoma was more than 100 µM each time.
On to `CC(OC1CC(=O)CC2C(=O)C=CC(=O)C12)c1ccccc1` (stereo not given), for which the total growth inhibition concentration (TGI) with SK-MEL-2 melanoma is 34.9 µM; in the test with HOP-92 NSCLC, 2.97 µM; in the test on HL-60(TB) leukemia, 20 µM; with NCI-H226 lung it was 36.5 µM; in the test on M14 melanoma, 33.3 µM; in the test on HCC-2998 colon, 29.7 µM. In addition, the concentration for total growth inhibition (TGI) in the test with OVCAR-5 ovarian is 31.6 µM; in the test on SF-268 CNS, 40.9 µM; in the test on OVCAR-3 ovarian it was 33.3 µM; with K-562 leukemia, more than 100 µM; in the test on SW-620 colon, 27.3 µM; with NCI-H23 lung it was 33.6 µM. The total growth inhibition concentration (TGI) in the test on CCRF-CEM leukemia is 9.54 µM; in the test with LOX IMVI melanoma, 33.3 µM.
In the case of `CC(C)(C)OC(=O)NNC(=O)C1Cc2ccccc2OC1=O` (stereo not given), the concentration for total growth inhibition (TGI) in the test with SK-MEL-2 melanoma, with NCI-H226 lung, with M14 melanoma, with HCC-2998 colon, in the test with OVCAR-5 ovarian and with SF-268 CNS was more than 100 µM each time. Besides, the concentration for total growth inhibition (TGI) in the test on MDA-MB-435, with OVCAR-3 ovarian, in the test with K-562 leukemia, in the test with SW-620 colon, in the test with NCI-H23 lung and in the test with NCI/ADR-RES ovarian was more than 100 µM each time.
For `COc1ccc(OC)c(/C=C/C(=O)C(C)(C)C)c1`, the concentration for total growth inhibition (TGI) with HOP-92 NSCLC was 44.1 µM; with HL-60(TB) leukemia, 38.7 µM; with NCI-H226 lung, 35.4 µM; in the test on M14 melanoma, 30.2 µM; with HCC-2998 colon, 39.7 µM; in the test on OVCAR-3 ovarian, 49.5 µM. For the same compound, the TGI with K-562 leukemia was determined as 55.8 µM; in the test on SW-620 colon, 38.6 µM; in the test with NCI-H23 lung, 40.4 µM; with CCRF-CEM leukemia, 44.5 µM; in the test with LOX IMVI melanoma, 40.6 µM.
With `CCCCCCCCCCCCC/C=C1\C[C@H](O)COC1=O`, the TGI in the test on SK-MEL-2 melanoma came out at 31.1 µM; in the test on HOP-92 NSCLC, 24.7 µM; in the test on HL-60(TB) leukemia, 39.9 µM; with NCI-H226 lung, 32.9 µM; with M14 melanoma, 28.3 µM; in the test on HCC-2998 colon it was 37.2 µM. The concentration for total growth inhibition (TGI) in the test with OVCAR-5 ovarian is 33.5 µM; with SF-268 CNS, 38 µM; in the test with OVCAR-3 ovarian, 31.7 µM; with K-562 leukemia, 33.1 µM; with SW-620 colon, 28.8 µM; with NCI-H23 lung, 36.4 µM. In the test with CCRF-CEM leukemia, this compound returned a TGI of 36.6 µM.
Consider `Fc1ccc2c(c1)SC1Oc3ccccc3-c3c1c-2nn3-c1ccccc1` (stereo not given), for which the total growth inhibition concentration (TGI) with SK-MEL-2 melanoma, with HOP-92 NSCLC, in the test on HL-60(TB) leukemia, with HCC-2998 colon, in the test on OVCAR-5 ovarian and in the test with SF-268 CNS was more than 100 µM in each case. Moreover, the TGI with OVCAR-3 ovarian, in the test with K-562 leukemia, with SW-620 colon, in the test with NCI-H23 lung, in the test with CCRF-CEM leukemia and with LOX IMVI melanoma was more than 100 µM each time.
Regarding `CCOC(=O)C1(Br)C(c2ccccc2)NC(=O)N(C2OC(COC(=O)c3ccccc3)C(OC(=O)c3ccccc3)C2OC(=O)c2ccccc2)C1(C)Br` (stereo not given), the TGI is more than 100 µM in the test with SK-MEL-2 melanoma; 69.9 µM in the test on HOP-92 NSCLC; more than 63.6 µM with M14 melanoma; more than 100 µM in the test with HCC-2998 colon; more than 100 µM in the test on SF-268 CNS; more than 89.6 µM in the test with OVCAR-3 ovarian. The TGI with K-562 leukemia is 19.3 µM; in the test with SW-620 colon it was 22.4 µM; in the test on NCI-H23 lung it was more than 100 µM; in the test with CCRF-CEM leukemia it was 18.8 µM; in the test on LOX IMVI melanoma, more than 100 µM.
In the case of `CSC1=C(C#N)C(=O)N(c2ccc(Cl)cc2)C(=O)C1C#N` (stereo not given), the total growth inhibition concentration (TGI) in the test with SK-MEL-2 melanoma is more than 100 µM; in the test on HOP-92 NSCLC, 76.9 µM; in the test with HL-60(TB) leukemia, more than 100 µM; with NCI-H226 lung, more than 100 µM; in the test with M14 melanoma, more than 100 µM; with HCC-2998 colon, more than 100 µM. For the same compound, the TGI in the test with OVCAR-5 ovarian, in the test on SF-268 CNS, in the test with MDA-MB-435, with OVCAR-3 ovarian, in the test on K-562 leukemia and in the test with SW-620 colon was more than 100 µM throughout. In addition, the total growth inhibition concentration (TGI) in the test with NCI-H23 lung, with CCRF-CEM leukemia and in the test with LOX IMVI melanoma was more than 100 µM each time.
Take `CN(C(=O)[C@@H](NC(=O)OC(C)(C)C)c1ccccc1)[C@H]1CCCC[C@@H]1N1CCCC1`: the concentration for total growth inhibition (TGI) in the test with SK-MEL-2 melanoma, in the test on HL-60(TB) leukemia, with NCI-H226 lung, in the test on M14 melanoma, with OVCAR-5 ovarian and with SF-268 CNS was more than 100 µM in each case. The TGI in the test with MDA-MB-435, with OVCAR-3 ovarian, in the test with K-562 leukemia, in the test with SW-620 colon, with NCI-H23 lung and with NCI/ADR-RES ovarian was more than 100 µM in each case.
For `CN/C=C(/c1ccc(OC)cc1)C(O)c1ccc(OC)c(OC)c1` (stereo not given), the total growth inhibition concentration (TGI) in the test on SK-MEL-2 melanoma, in the test with HOP-92 NSCLC, in the test with HL-60(TB) leukemia, with NCI-H226 lung, in the test on M14 melanoma and in the test with HCC-2998 colon was more than 100 µM throughout. The total growth inhibition concentration (TGI) in the test with OVCAR-5 ovarian, in the test with OVCAR-3 ovarian, with K-562 leukemia, with SW-620 colon, in the test on NCI-H23 lung and with CCRF-CEM leukemia was more than 100 µM in each case. The compound also yielded a concentration for total growth inhibition (TGI) with LOX IMVI melanoma of more than 100 µM.
With `COc1cc2c(cc1OC)C(=O)Cc1ccc3c(c1CNCC2)OCO3`, the TGI with SK-MEL-2 melanoma, in the test on M14 melanoma, in the test on HCC-2998 colon, in the test with OVCAR-5 ovarian, in the test on SF-268 CNS and with OVCAR-3 ovarian was more than 100 µM in each case. For the same compound, the concentration for total growth inhibition (TGI) with K-562 leukemia, in the test on SW-620 colon, with NCI-H23 lung and in the test with CCRF-CEM leukemia was more than 100 µM in each case.

In general, TGI refers to the concentration at which net growth stops. Low values mean greater sensitivity of the cells, high ones lower sensitivity of the cells.
